For data set [1], the system named is Hepatitis C virus. Put plainly: Antiviral activity against HCV in Huh7-Rep cells by luciferase assay. The data set is classed as functional, organism-based, Hepacivirus hominis.
A short description of data set [2]: Cytotoxicity against MT4 cells by luciferase assay. The note with it: human. Type of data set: cell-based.
A short description of data set [3]: Cytotoxicity against Huh7 cells by luciferase assay. Type of data set: cell-based, Huh-7. The conditions noted are these: human.

In data set [1], `Cc1cnccc1Nc1nc(-c2cc(Cl)ccc2F)nc2nccnc12` returned an EC50 of 2 µM. The CC50 in data set [2] and in data set [3] was more than 32 µM throughout.
As for `Fc1ccc(Br)cc1-c1nc(Nc2ccccc2)c2nccnc2n1`, the midpoint of the response in data set [1], the EC50, lay at 4 µM. In addition, the CC50 in data set [2] and in data set [3] was more than 32 µM in each case.
As for `COc1cnc(-c2cc(Cl)ccc2F)nc1Nc1ccncc1C(=O)NCCCN(C)C`, in data set [1], a half-maximal response (EC50) required 0.59 µM. For the same molecule, the CC50 in data set [2] worked out at 5 µM; in data set [3], 15.8 µM.
Turning to `CN(c1ccncc1)c1nc(-c2cc(Br)ccc2F)nc2nccnc12`, a half-maximal effect in data set [1] (EC50) was put at 3.65 µM. The CC50 in data set [2] and in data set [3] was more than 32 µM throughout.
Regarding `COc1cnc(-c2cc(Cl)ccc2F)nc1Nc1ccncc1C(=O)NC1CCN(C(=O)OC(C)(C)C)CC1`, the EC50 in data set [1] stood at 1 µM. The results for the CC50 in data set [2] and in data set [3] were 3.9 µM and 4 µM, respectively.
The like results for `Fc1ccc(Br)cc1-c1nc(N(CCc2ccccc2)c2ccncc2)c2nccnc2n1` were, in that order, 1.96 µM, 11 µM and 22.2 µM.
The like results for `COc1cnc(-c2cc(Cl)ccc2F)nc1Nc1ccncc1C(=O)NCCNCCO` were, in that order, 0.85 µM, more than 32 µM and more than 32 µM.
Consider `COc1cnc(-c2cc(Cl)ccc2F)nc1Nc1ccncc1C(=O)NCCN`, for which, in data set [1], the EC50 is 3.6 µM. Further, the CC50 in data set [2] is 4.7 µM; in data set [3], 5.5 µM.
Taken in the same sequence, the figures for `COc1cnc(-c2cc(Cl)ccc2F)nc1Nc1ccncc1C(=O)NCCCn1ccnc1` were 0.92 µM, 8.1 µM and 15.3 µM.
The like results for `COc1cnc(-c2cc(Cl)ccc2F)nc1Nc1ccncc1C(=O)NCCCN1CCCC1=O` were, in that order, 0.084 µM, 5.8 µM and 17.7 µM.
The molecule `CN(c1ccccc1)c1nc(-c2cc(Br)ccc2F)nc2nccnc12` returned an EC50 in data set [1] of 1.98 µM. Moreover, the CC50 in data set [2] and in data set [3] was more than 32 µM each time.
As to `COc1cnc(-c2cc(Cl)ccc2F)nc1Nc1ccncc1C(=O)NCCNCC(C)O` (configuration not stated), a half-maximal effect in data set [1] (EC50) was put at 9.6 µM. In addition, the CC50 in data set [2] and in data set [3] was more than 32 µM in each case.
For `COc1cnc(-c2cc(Cl)ccc2F)nc1Nc1ccncc1C(=O)NCC(F)(F)F`, it took 1.2 µM to reach a half-maximal effect in data set [1] (EC50). Also, the CC50 in data set [2] and in data set [3] was more than 32 µM each time.
As to `COc1cnc(-c2cc(Cl)ccc2F)nc1Nc1ccncc1C(=O)NCCCN1CCOCC1`, the EC50 in data set [1] stood at 2.5 µM. The CC50 stood at 15.4 µM in data set [2] and 17.1 µM in data set [3].
For `Fc1ccc(Br)cc1-c1nc(N(Cc2ccccc2)c2ccncc2)c2nccnc2n1`, in data set [1], the EC50 is 0.99 µM. Further, the CC50 in data set [2] and in data set [3] was more than 32 µM throughout.
`Fc1ccc(Br)cc1-c1nc(Nc2ccncc2)c2nccnc2n1`: the 50% effective concentration (EC50) in data set [1] turned out to be 0.35 µM. Also, the CC50 in data set [2] and in data set [3] was more than 32 µM throughout.
Turning to `COc1cnc(-c2cc(Cl)ccc2F)nc1Nc1ccncc1C(=O)NC[C@H]1CCCO1`, it took 2.6 µM to reach a half-maximal effect in data set [1] (EC50). The CC50 in data set [2] and in data set [3] was more than 32 µM throughout.
With `CCOC(=O)CNC(=O)c1cnccc1Nc1nc(-c2cc(Cl)ccc2F)ncc1OC`, in data set [1], the EC50 is 4.6 µM. The CC50 in data set [2] and in data set [3] was more than 32 µM each time.
Turning to `FC(F)(F)c1cccc(-c2nc(Nc3ccncc3)c3nccnc3n2)c1`, in data set [1], the EC50 was 1.91 µM. In addition, the CC50 in data set [2] and in data set [3] was more than 25 µM in each case.
The molecule `CCCCN(c1ccncc1)c1nc(-c2cc(Br)ccc2F)nc2nccnc12` returned an EC50 in data set [1] of 2.2 µM. In addition, the CC50 in data set [2] and in data set [3] was more than 32 µM each time.
`Oc1nc(-c2cc(Cl)ccc2F)nc2nccnc12`: the 50% effective concentration (EC50) in data set [1] is more than 50 µM. Also, the CC50 in data set [2] and in data set [3] was more than 25 µM throughout.
In data set [1], `Fc1ccc(Cl)cc1-c1nc(Nc2ccncc2)c2nccnc2n1` returned an EC50 of 0.89 µM. The CC50 in data set [2] and in data set [3] was more than 25 µM throughout.
As to `Clc1cccc(-c2nc(Nc3ccncc3)c3nccnc3n2)c1`, the 50% effective concentration (EC50) in data set [1] was 1.67 µM. Moreover, the CC50 in data set [2] and in data set [3] was more than 32 µM throughout.
`Cc1ccccc1Nc1nc(-c2cc(Br)ccc2F)nc2nccnc12` returned an EC50 in data set [1] of 6.4 µM. In addition, the 50% cytotoxic concentration (CC50) in data set [2] and in data set [3] was more than 32 µM throughout.
`Cc1cnccc1Nc1nc(-c2cc(Br)ccc2F)nc2nccnc12` returned an EC50 in data set [1] of 0.8 µM. Besides, the CC50 in data set [2] and in data set [3] was more than 32 µM in each case.
On to `Cc1cc(Nc2nc(-c3cc(Br)ccc3F)nc3nccnc23)ccn1`, for which the EC50 in data set [1] is 3.6 µM. Besides, the CC50 in data set [2] came out at 13.2 µM; in data set [3], 12.9 µM.
The like results for `COc1cnc(-c2cc(Cl)ccc2F)nc1Nc1ccncc1C(=O)NCCCN1CCCCC1C` (configuration not stated) were, in that order, 0.55 µM, 3.3 µM and 3.6 µM.
Taken in the same sequence, the figures for `Fc1ccccc1-c1nc(Nc2ccncc2)c2nccnc2n1` were 9.95 µM, more than 25 µM and more than 25 µM.
The like results for `CCc1cnccc1Nc1nc(-c2cc(Cl)ccc2F)nc2nccnc12` were, in that order, 0.71 µM, more than 32 µM and more than 32 µM.

As a reminder, the EC50 is the concentration giving half of the maximal effect. Usually CC50 stands for the concentration giving 50% cytotoxicity.

These data come from ChEMBL document CHEMBL1148862, “Evaluation of the anti-hepatitis C virus effect of novel potent, selective, and orally bioavailable JNK and VEGFR kinase inhibitors” (Bioorg Med Chem Lett, 2007).
